Measurements published in patent US7709636B2, “Pyrazole sulfonylurea compound and herbicide” (Nissan Chemical Industries, Ltd., priority 2004, dated 2010).

Assays:
[1] = tested on: Echinochloa crus-galli; assay: Herbicidal effect test in submerged condition by treatment during weed-growth stage (1); format: in vivo; details: 0.64 g/a, treated at 1st to 2nd leaf stage, 3 weeks after treatment
Protocol: (§1) Herbicidal Effect Test in Submerged Condition by Treatment During Weed-Growth Stage (1) After alluvial soil was placed in a styrol cup of 1/30000 are, water was poured therein and mixed, and adjusted to a submerged condition of water depth 4 cm. After seeds of Echinochloa crus-galli, Scirpus juncoides and Monochoria vaginalis were sown in the cup, the plants were grown by putting the cup in a green house at 25 to 30° C. When Echinochloa crus-galli, Scirpus juncoides and Monochoria vaginalis reached 1st to 2nd leaf stage, the wettable powder of the present invention prepared according to Formulation Example 1 was diluted with water so as to give a predetermined formulation amount, and the surface of the water was treated with the diluted wettable powder. The herbicidal effect for each plant was investigated 3 weeks after treatment with the herbicide according to the criteria indicated in Test Example 1.

[2] = tested on: Scirpus juncoides; assay: as above; format: in vivo; details: 0.64 g/a, treated at 1st to 2nd leaf stage, 3 weeks after treatment
Protocol: as §1

[3] = tested on: Monochoria vaginalis; assay: as above; format: in vivo; details: 0.64 g/a, treated at 1st to 2nd leaf stage, 3 weeks after treatment
Protocol: as §1

[4] = tested on: direct sown rice; assay: Herbicidal effect test by soil treatment; format: in vivo, Oryza sativa; details: 1.6 g/a, 3 weeks after treatment
From the text: (§2) Herbicidal Effect Test by Soil Treatment
(§3) Sterilized diluvial soil was placed in a plastic box having a size of length 21 cm, width 13 cm and depth 7 cm, seeds Echinochloa crus-galli, Digitaria adscendes, Setaria viridis, Avena fatua, Black-grass, Abutilon avicennae, Ambrosia elatior, Amaranthus retroflexus, Chenopodium album, Polygonum blumei, Stellaria media, Zea mays (corn), Glycine max (soybean), Oryza sativa (rice), Triticum aestivum (wheat) and Beta vulgaris (beat) were sown interspatially, covered with about 1.5 cm of soil, and then the wettable powder of the present invention prepared according to Formulation Example 1 was diluted with water so as to give a predetermined formulation amount, and the surface of the soil was uniformly treated with the diluted wettable powder by use of a small-sized spray. The herbicidal effect for each plant was investigated 3 weeks after treatment with the herbicide according to the criteria indicated in Test Example 1.

[5] = tested on: Ambrosia elatior; assay: Herbicidal effect test by soil treatment; format: in vivo; details: 1.6 g/a, 3 weeks after treatment
From the text: as §2, §3

[6] = tested on: Echinochloa crus-galli; assay: Herbicidal effect test by soil treatment; format: in vivo; details: 1.6 g/a, 3 weeks after treatment
From the text: as §2, §3

[7] = tested on: Triticum aestivum (wheat); assay: Herbicidal effect test by soil treatment; format: in vivo; details: 1.6 g/a, 3 weeks after treatment
From the text: as §2, §3

[8] = tested on: Black-grass; assay: Herbicidal effect test by soil treatment; format: in vivo; details: 1.6 g/a, 3 weeks after treatment
From the text: as §2, §3

[9] = tested on: Abutilon avicennae; assay: Herbicidal effect test by soil treatment; format: in vivo; details: 1.6 g/a, 3 weeks after treatment
From the text: as §2, §3

[10] = tested on: Chenopodium album; assay: Herbicidal effect test by soil treatment; format: in vivo; details: 1.6 g/a, 3 weeks after treatment
From the text: as §2, §3

[11] = tested on: Stellaria media; assay: Herbicidal effect test by soil treatment; format: in vivo; details: 1.6 g/a, 3 weeks after treatment
From the text: as §2, §3

[12] = tested on: corn (Zea mays); assay: Herbicidal effect test by soil treatment; format: in vivo; details: 1.6 g/a, 3 weeks after treatment
From the text: as §2, §3

[13] = tested on: Setaria viridis; assay: Herbicidal effect test by soil treatment; format: in vivo; details: 1.6 g/a, 3 weeks after treatment
From the text: as §2, §3

[14] = tested on: Avena fatua; assay: Herbicidal effect test by soil treatment; format: in vivo; details: 1.6 g/a, 3 weeks after treatment
From the text: as §2, §3

[15] = tested on: Digitaria adscendes; assay: Herbicidal effect test by soil treatment; format: in vivo; details: 1.6 g/a, 3 weeks after treatment
From the text: as §2, §3

[16] = tested on: Beta vulgaris (beet); assay: Herbicidal effect test by soil treatment; format: in vivo; details: 1.6 g/a, 3 weeks after treatment
From the text: as §2, §3

[17] = tested on: soybean (Glycine max); assay: Herbicidal effect test by soil treatment; format: in vivo; details: 1.6 g/a, 3 weeks after treatment
From the text: as §2, §3

[18] = tested on: Polygonum blumei; assay: Herbicidal effect test by soil treatment; format: in vivo; details: 1.6 g/a, 3 weeks after treatment
From the text: as §2, §3

[19] = tested on: Amaranthus retroflexus; assay: Herbicidal effect test by soil treatment; format: in vivo; details: 1.6 g/a, 3 weeks after treatment
From the text: as §2, §3

## COc1cc(OC)nc(NC(=O)NS(=O)(=O)c2c(C3=NOC(C)CO3)c(C)nn2C)n1 (stereo not shown) [Compound 9, N-((4,6-dimethoxypyrimidin-2-yl)aminocarbonyl)-1,3-dimethyl-4-(6-methyl-5H,6H-1,4,2-dioxadin-3-yl)pyrazole-5-sulfonamide]
[1]
  herbicidal effect, A: Echinochloa crus-galli: 5 (Herbicidal rate 90% or more (almost complete death))
[2]
  herbicidal effect, B: Scirpus juncoides: 5 (Herbicidal rate 90% or more (almost complete death))
[3]
  herbicidal effect, C: Monochoria vaginalis: 5 (Herbicidal rate 90% or more (almost complete death))
[4]
  herbicidal effect, d: direct sown rice: 5 (Herbicidal rate 90% or more (almost complete death))
[5]
  herbicidal effect, I: Ambrosia elatior: 5 (Herbicidal rate 90% or more (almost complete death))
[6]
  herbicidal effect, A: Echinochloa crus-galli: 4 (Herbicidal rate 70% or more and less than 90%)
[7]
  herbicidal effect, e: Triticum aestivum (wheat): 5 (Herbicidal rate 90% or more (almost complete death))
[8]
  herbicidal effect, G: Black-grass: 5 (Herbicidal rate 90% or more (almost complete death))
[9]
  herbicidal effect, H: Abutilon avicennae: 4 (Herbicidal rate 70% or more and less than 90%)
[10]
  herbicidal effect, K: Chenopodium album: 5 (Herbicidal rate 90% or more (almost complete death))
[11]
  herbicidal effect, M: Stellaria media: 5 (Herbicidal rate 90% or more (almost complete death))
[12]
  herbicidal effect, b: corn (Zea mays): 5 (Herbicidal rate 90% or more (almost complete death))
[13]
  herbicidal effect, E: Setaria viridis: 4 (Herbicidal rate 70% or more and less than 90%)
[14]
  herbicidal effect, F: Avena fatua: 3 (Herbicidal rate 40% or more and less than 70%)
[15]
  herbicidal effect, D: Digitaria adscendes: 4 (Herbicidal rate 70% or more and less than 90%)
[16]
  herbicidal effect, f: Beta vulgaris (beet): 5 (Herbicidal rate 90% or more (almost complete death))
[17]
  herbicidal effect, c: soybean (Glycine max): 5 (Herbicidal rate 90% or more (almost complete death))
[18]
  herbicidal effect, L: Polygonum blumei: 5 (Herbicidal rate 90% or more (almost complete death))
[19]
  herbicidal effect, J: Amaranthus retroflexus: 5 (Herbicidal rate 90% or more (almost complete death))
